This is an account of results in patent US9303042B2, “Triazolothienopyrimidine compound inhibitors of urea transporters and methods of using inhibitors” (The Regents of the University of California, priority 2012, dated 2016).

A short description of data set [1]: In vitro metabolic stability in hepatic microsomes. It counts as in vitro ADME, rat.
Description: Compounds, each at 5 μM, were incubated for specified times at 37° C. with rat liver microsomes (1 mg protein/ml; Sigma-Aldrich, St. Louis, Mo.) in potassium phosphate buffer (100 mM) containing 1 mM NADPH. The mixture was then chilled on ice, and 0.5 ml of ice-cold ethyl acetate was added.
The target of data set [2] is T1, UT-A3 (Mus musculus, UniProt Q8R4T9).
T1 construct: expressed in transfected cells
T1 sequence (Q8R4T9 1-461 isoform Q8R4T9-3): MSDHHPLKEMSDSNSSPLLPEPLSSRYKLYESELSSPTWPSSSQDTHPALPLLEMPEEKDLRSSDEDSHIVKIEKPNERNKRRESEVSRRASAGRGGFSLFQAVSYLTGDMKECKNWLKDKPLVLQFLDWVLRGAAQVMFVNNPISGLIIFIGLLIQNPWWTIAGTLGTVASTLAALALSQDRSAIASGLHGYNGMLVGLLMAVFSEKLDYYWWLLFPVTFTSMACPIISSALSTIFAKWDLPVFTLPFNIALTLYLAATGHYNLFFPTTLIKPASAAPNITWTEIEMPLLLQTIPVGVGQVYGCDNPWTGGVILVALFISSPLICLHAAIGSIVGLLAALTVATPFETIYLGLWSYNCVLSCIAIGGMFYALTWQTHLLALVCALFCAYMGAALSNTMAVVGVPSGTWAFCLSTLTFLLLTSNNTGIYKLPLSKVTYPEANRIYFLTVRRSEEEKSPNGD
Description: Transepithelial urea transport in MDCK cells stably expressing UT-A3. It counts as cell-based. Particulars: UTBinh-14 10 μM, forskolin. The procedure:
UT-B selectivity and cytotoxicity were studied. Because of sequence similarities between UT-B and UT-A isoforms, UT-A inhibition was measured. Transepithelial urea transport was measured in MDCK cells stably expressing UT-A1, UT-A3, and UT-B. UT-A1 and UT-A3 are cAMP-regulated urea transporters expressed in kidney tubule epithelia (see, e.g., Frohlich et al., Am. J. Physiol. Cell Physiol. 291:C600-606 (2006); Tickle et al., Am. J. Physiol. Regul. Integr. Comp Physiol 0.297: R323-329 (2009); Stewart et al., Am. J. Physiol. Renal Physiol. 292:F1157-63 (2006)). MDCK cells were cultured on collagen-coated porous filters for measurement of urea accumulation in the apical solution following addition of urea to the basolateral solution.
cDNAs encoding mouse UT-A3 and UT-B were cloned into pcDNA3.1 and used to generate stably transfected MDCK cell lines. MDCK cells stably expressing rat UT-A1 (MDCK-UT-A1) (see, e.g., Frohlich et al., supra) were obtained as described (see, e.g., Levin et al., FASEB J., supra). Cells were cultured in DMEM containing 10% FBS and 0.5 mg/mL G418. […] Urea flux in the basolateral-to-apical direction across unstimulated and forskolin-stimulated cell layers was measured in response to a 15-mM urea gradient. […]

A short description of data set [3]: LC/MS analysis of compound in mouse kidney, blood and urine. The procedure: In some studies, mice were placed on low, normal or […] diets (4%, 20% or 40% casein, Harlan Labs.) for 1 week prior study of dDAVP effects. […] Urea concentration was determined by a colorimetric enzymatic assay as described above. Measurements were also done in the absence of dDAVP in which urine was collected during free access to food and water.
Kidneys were weighed, mixed with acetic acid (100 μL per 1 g tissue) and ethyl acetate (10 mL per 1 g tissue), and homogenized.

The mark [4] stands for this setting: for several hours following a single intraperitoneal administration.

For `CCc1ccc(S(=O)(=O)c2nnn3c2nc(NCc2cccs2)c2sccc23)cc1` [UTBinh-14, [3-(4-Ethyl-benzenesulfonyl)-thieno[2,3-e][1,2,3]triazolo[1,5-a]pyrimidin-5-yl]-thiophen-2-ylmethylamine], the “t1/2 for disappearance in hepatic microsomes” value in data set [1] (hepatic microsomes, NADPH) is “approximately 2.8 min”. The “% Remaining” value in data set [1] (parent molecule after 30 min incubation with rat liver microsomes) is on record as <5%. In data set [2], the “inhibition of UT-A3 facilitated urea transport” value is given as “little inhibition”. Besides, the concentration in kidney result in data set [3] (for at least 4 h after single intraperitoneal 300 μg) was “greater than 1 μM”. For the same compound, in data set [3] (setting [4]), the concentration in blood result is given as “greater than 1 μM” and the concentration in urine entry was “greater than 1 μM”. Besides, the “Peak concentration in kidney” value in data set [3] (single intraperitoneal 300 μg, normalized to kidney water volume) was “approximately 10 μM”.
